Where a SMILES comes first, the peptide text is derived from it. [ ]: non-standard residue; d: D form. The star is where a group is joined. d(aIle) = CC[C@H](C)[C@@H](N)C(=O)O; dOrn = NCCC[C@@H](N)C(=O)O; dDab = NCC[C@@H](N)C(=O)O; Octanoyl = CCCCCCCC(=O)*; Orn = NCCC[C@H](N)C(=O)O; Dab = NCC[C@H](N)C(=O)O
Legend:
A. baumannii = assay type: cell-based, Acinetobacter baumannii; settings: 18 h
Description: (§1) IV. Antimicrobial testing
(§2) All minimum inhibitory concentrations (MICs) were determined according to Clinical and Standards Laboratory Institute (CLSI) guidelines. Briefly, peptides were dissolved in Muller-Hinton Broth (MHB) and serial dilutions made across a 96 well plate. Each well was inoculated with a suspension of the required bacterial strain to reach a final inoculum of 5 x 10^5 colony forming units per mL. The MIC was taken as the lowest concentration with no visible growth after 18 hours.
(§3) V. Additional information on multidrug resistant strains
(§4) Organism Resistant Susceptible
Acinetobacter baumannii Cefotaxime Imipenem
Isolated from sewage contaminated Tetracycline Colistin water (Tripoli, Lebanon). Ofloxacin Tobramycin
(§5) Acinetobacter baumannii ACM 11 Ceftazimide
(§6) Acinetobacter baumannii ACM 29 Ceftazimide
(§7) Isolated from peritoneum of 3-year- Imipenem

A. baumannii ACM 11 = assay type: cell-based, Acinetobacter baumannii; settings: ACM 11, 18 h
Description: as §1, §2, §3, §4, §5

A. baumannii ACM 29 = assay type: cell-based, Acinetobacter baumannii; settings: ACM 29, 18 h
Description: as §1, §2
V. Additional information on multidrug resistant strains […]
Organism Resistant Susceptible […]
as §6, §7

E. cloacae = assay type: cell-based, Enterobacter cloacae; settings: 18 h
Description: as §1, §2

K. pneumoniae IMP 170 = assay type: cell-based, Klebsiella pneumoniae; settings: IMP 170, 18 h
Description: as §1, §2

K. pneumoniae IMP 177 = assay type: cell-based, Klebsiella pneumoniae; settings: IMP 177, 18 h
Description: as §1, §2

K. pneumoniae IMP 204 = assay type: cell-based, Klebsiella pneumoniae; settings: IMP 204, 18 h
Description: as §1, §2

K. pneumoniae IMP 216 = assay type: cell-based, Klebsiella pneumoniae; settings: IMP 216, 18 h
Description: as §1, §2

K. pneumoniae IMP 485 = assay type: cell-based, Klebsiella pneumoniae; settings: IMP 485, 18 h
Description: as §1, §2

K. pneumoniae = assay type: cell-based, Klebsiella pneumoniae; settings: 18 h
Description: as §1, §2

P. pseudoalcaligenes = assay type: cell-based, Pseudomonas pseudoalcaligenes; settings: for Peptide MIC: 18 h; for antimicrobial activity relative to Oct-TriA1: against P. pseudoalcaligenes
Description: as §1, §2

Equine erythrocytes = assay type: cell-based, horse; settings: red cells of equine, 100 μg mL^–1
Description: Having assessed the antimicrobial activity of peptides 1–8 we next proceeded to assess their haemolytic activities (Table 2). Haemolytic activity was tested at 100 μg mL^–1, as the concentration required for haemolysis should be higher than antimicrobial MICs. Equine erythrocytes were exposed to peptides 1–8 and incubated for 30 min at 37 °C (Table 2). […] The low haemolytic activity observed for Oct-TriA2 (2,8-D-Lys, 7-Lys) (8) is consistent with its poor antimicrobial activity. […]
VI. Haemolytic activity assays
A 96-well plate was first prepared to contain phosphate-buffered saline (PBS) solutions (100 μL) of tridecaptin analogues 1 – 8 (200 μg/mL) (experiments run in triplicate). 0.1 % Triton X-100 (100 μL) was used as a positive control, while PBS (100 μL) was used as a blank. After the plate had been prepared, defibrinated horse blood (0.5 mL, VWR International) was diluted with phosphate-buffered saline (9.5 mL) and gently shaken. The resulting mixture was centrifuged (5600 rpm, 5 min) using a Thermo Scientific Heraeus Labofuge 200 centrifuge and the supernatant carefully removed. This process was repeated three more times to remove any free hemoglobin. The resulting erythrocyte pellet was gently resuspended in 9.5 mL of PBS. Aliquots of the resulting mixture (100 μL) were added to the appropriate wells on the 96-well plate using a multichannel pipette and the plate incubated at 37 °C for 30 min. The samples were gently mixed by pipetting, and 20 μL of each was added to 200 μL of PBS. Once again, the samples were gently mixed. The diluted samples were then centrifuged (7000 rpm, 5 min) using a SciSpin MINI Microfuge. Supernatant (150 μL) from each sample was added to a new 96-well plate. The absorbance of each sample was individually measured at 415 nm using a Denovix DS-11 FX+ Spectrophotometer. Percent hemolysis of the peptides was calculated relative to Triton X- 100, while the PBS negative control was used as a blank.

[1] = system: panel of Gram-negative bacteria; assay: MIC, summary over the panel of strains; assay type: cell-based
From the text: Previous studies have shown that the tridecaptins have strong activity against clinically relevant Gram-negative strains.[8],[14] This includes A. baumannii and Enterobacteriaceae such as Klebsiella pneumoniae and Enterobacter spp., however P. aeruginosa is less susceptible. The World Health Organization (WHO) currently lists carbapenemase-producing strains of these Gram-negative bacteria as critical priority pathogens. We therefore decided to synthesize a library of novel tridecaptin analogues containing conservative substitutions at positions 2, 7, 8 and/or 12, and evaluate their activity against a panel of these strains (Table 1). This panel of Gram-negative bacteria contains environmental samples isolated from sewage contaminated water in Lebanon, as well as several strains isolated from patients at clinical settings. […]
MilliQ water and solvent B = 0.1 % TFA in ACN. […] High resolution mass spectrometry (HRMS) spectra of all peptides were recorded by Analytical Services and Environmental Projects (ASEP) at Queen’s University Belfast on a Waters LCT Premier ToF mass spectrometer using the electrospray ionisation (ESI) technique. […]
All minimum inhibitory concentrations (MICs) were determined according to Clinical and Standards Laboratory Institute (CLSI) guidelines. […]

Row | Peptide MIC (A. baumannii) [μg mL^–1] | Peptide MIC (A. baumannii ACM 11) [μg mL^–1] | Peptide MIC (A. baumannii ACM 29) [μg mL^–1] | Peptide MIC (E. cloacae) [μg mL^–1] | Peptide MIC (K. pneumoniae IMP 170) [μg mL^–1] | Peptide MIC (K. pneumoniae IMP 177) [μg mL^–1] | Peptide MIC (K. pneumoniae IMP 204) [μg mL^–1] | Peptide MIC (K. pneumoniae IMP 216) [μg mL^–1] | Peptide MIC (K. pneumoniae IMP 485) [μg mL^–1] | Peptide MIC (K. pneumoniae) [μg mL^–1] | Peptide MIC (P. pseudoalcaligenes) [μg mL^–1] | Structure (SMILES) | % haemolysis (Equine erythrocytes) [%] | antimicrobial activity at the highest concentrations tested ([1]; highest concentration tested 100 μg mL^–1, all strains of the panel) | antimicrobial activity relative to Oct-TriA1 (P. pseudoalcaligenes) | antimicrobial activity relative to Oct-TriA1 (1) ([1]; against most strains tested)
1 | 12.5 | 50 | 50 | 6.25 | 25 | 25 | 25 | 6.25 | 25 | 12.5 | 50 | CCCCCCCC(=O)N[C@@H](C(=O)N[C@H](CCCN)C(=O)NCC(=O)N[C@H](CO)C(=O)N[C@H](Cc1c[nH]c2ccccc12)C(=O)N[C@@H](CO)C(=O)N[C@@H](CCCN)C(=O)N[C@H](CCCN)C(=O)N[C@@H](Cc1ccccc1)C(=O)N[C@@H](CCC(=O)O)C(=O)N[C@H](C(=O)N[C@@H](C(=O)N[C@@H](C)C(=O)O)[C@@H](C)CC)C(C)C)C(C)C [Peptide 5, Oct-TriA1 (2,8-D-Orn, 7-Orn)] (Octanoyl-[dV][dOrn]G[dS][dW]S[Orn][dOrn]FEV[d(aIle)]A-OH) | 77.5 |  |  | 
2 | 50 | 25 | 50 | 25 | 25 | 25 | 25 | 25 | 25 | 50 | 25 | CCCCCCCC(=O)N[C@@H](C(=O)N[C@H](CCCCN)C(=O)NCC(=O)N[C@H](CO)C(=O)N[C@H](Cc1c[nH]c2ccccc12)C(=O)N[C@@H](CO)C(=O)N[C@@H](CCCCN)C(=O)N[C@H](CCN)C(=O)N[C@@H](Cc1ccccc1)C(=O)N[C@@H](CCC(=O)O)C(=O)N[C@H](C(=O)N[C@@H](C(=O)N[C@@H](C)C(=O)O)[C@@H](C)CC)C(C)C)C(C)C [Peptide 4, Oct-TriA1 (2-D-Lys, 7-Lys)] (Octanoyl-[dV][dK]G[dS][dW]SK[dDab]FEV[d(aIle)]A-OH) | 71.4 |  | enhanced antimicrobial activity | 
3 | 100 | 50 | 50 | 25 | 25 | 25 | 25 | 25 | 25 | 100 | 12.5 | CCCCCCCC(=O)N[C@@H](C(=O)N[C@H](CCCN)C(=O)NCC(=O)N[C@H](CO)C(=O)N[C@H](Cc1c[nH]c2ccccc12)C(=O)N[C@@H](CO)C(=O)N[C@@H](CCCN)C(=O)N[C@H](CCN)C(=O)N[C@@H](Cc1ccccc1)C(=O)N[C@@H](CCC(=O)O)C(=O)N[C@H](C(=O)N[C@@H](C(=O)N[C@@H](C)C(=O)O)[C@@H](C)CC)C(C)C)C(C)C [Peptide 3, Oct-TriA1 (2-D-Orn, 7-Orn)] (Octanoyl-[dV][dOrn]G[dS][dW]S[Orn][dDab]FEV[d(aIle)]A-OH) | 66.7 |  | enhanced antimicrobial activity | 
4 | 6.25 | 25 | 25 | 25 | 50 | 25 | 50 | 25 | 25 | 50 | 100 | CCCCCCCC(=O)N[C@@H](C(=O)N[C@H](CCCCN)C(=O)NCC(=O)N[C@H](CO)C(=O)N[C@H](Cc1c[nH]c2ccccc12)C(=O)N[C@@H](CO)C(=O)N[C@@H](CCCCN)C(=O)N[C@H](CCCCN)C(=O)N[C@@H](Cc1ccccc1)C(=O)N[C@@H](CCC(=O)O)C(=O)N[C@H](C(=O)N[C@@H](C(=O)N[C@@H](C)C(=O)O)[C@@H](C)CC)C(C)C)C(C)C [Peptide 6, Oct-TriA1 (2,8-D-Lys, 7-Lys)] (HELM PEPTIDE1{[CCCCCCCC(=O)[*:2]].[dV].[dK].G.[dS].[dW].S.K.[dK].F.E.V.[CC[C@H](C)[C@@H](N[*:1])C(=O)[*:2]].A}$$$$V2.0) | 86.4 |  |  | 

Row | Structure (SMILES) | Peptide MIC (A. baumannii) [μg mL^–1] | Peptide MIC (A. baumannii ACM 11) [μg mL^–1] | Peptide MIC (A. baumannii ACM 29) [μg mL^–1] | Peptide MIC (E. cloacae) [μg mL^–1] | Peptide MIC (K. pneumoniae IMP 170) [μg mL^–1] | Peptide MIC (K. pneumoniae IMP 177) [μg mL^–1] | Peptide MIC (K. pneumoniae IMP 204) [μg mL^–1] | Peptide MIC (K. pneumoniae IMP 216) [μg mL^–1] | Peptide MIC (K. pneumoniae IMP 485) [μg mL^–1] | Peptide MIC (K. pneumoniae) [μg mL^–1] | Peptide MIC (P. pseudoalcaligenes) [μg mL^–1] | % haemolysis (Equine erythrocytes) [%] | antimicrobial activity at the highest concentrations tested ([1]; highest concentration tested 100 μg mL^–1, all strains of the panel) | antimicrobial activity relative to Oct-TriA1 (P. pseudoalcaligenes) | antimicrobial activity relative to Oct-TriA1 (1) ([1]; against most strains tested)
5 | CCCCCCCC(=O)N[C@@H](C(=O)N[C@H](CCCCN)C(=O)NCC(=O)N[C@H](CO)C(=O)N[C@H](Cc1c[nH]c2ccccc12)C(=O)N[C@@H](CO)C(=O)N[C@@H](CCCCN)C(=O)N[C@H](CCCCN)C(=O)N[C@@H](Cc1ccccc1)C(=O)N[C@@H](CCC(=O)O)C(=O)N[C@H](C(=O)N[C@@H](C(=O)N[C@@H](C)C(=O)O)C(C)C)C(C)C)C(C)C [Peptide 8, Oct-TriA2 (2,8-D-Lys, 7-Lys)] (HELM PEPTIDE1{[CCCCCCCC(=O)[*:2]].[dV].[dK].G.[dS].[dW].S.K.[dK].F.E.V.[dV].A}$$$$V2.0) | >100 | >100 | >100 | >100 | >100 | >100 | >100 | >100 | >100 | >100 | >100 | 2.8 | no antimicrobial activity |  | 
6 | CCCCCCCC(=O)N[C@@H](C(=O)N[C@H](CCN)C(=O)NCC(=O)N[C@H](CO)C(=O)N[C@H](Cc1c[nH]c2ccccc12)C(=O)N[C@@H](CO)C(=O)N[C@@H](CCN)C(=O)N[C@H](CCN)C(=O)N[C@@H](Cc1ccccc1)C(=O)N[C@@H](CCC(=O)O)C(=O)N[C@H](C(=O)N[C@@H](C(=O)N[C@@H](C)C(=O)O)C(C)C)C(C)C)C(C)C [Peptide 2, Oct-TriA2] (Octanoyl-[dV][dDab]G[dS][dW]S[Dab][dDab]FEV[dV]A-OH) | 25 | 100 | 50 | 6.25 | 12.5 | 25 | 12.5 | 12.5 | 12.5 | 12.5 | 50 | 52.1 |  |  | two- to four-fold less active

Reference: article PMC6457190, “Tridecaptin-inspired antimicrobial peptides with activity against multidrug-resistant Gram-negative bacteria” (MedChemComm, 2019)
